Source: article PMC9234963, “Optimizing Shape Complementarity Enables the Discovery of Potent Tricyclic BCL6 Inhibitors” (Journal of Medicinal Chemistry, 2022)
pIC50: −log10 of the molar value. “And” between values parts separate entries of the source, which are not always exact repeats. Identical values can stand only once. Like-named read-outs stand apart in the source and are kept apart here.

Assays:
Karpas 422 = assay: Cell proliferation assay (14 days, CellTiter Glo), Karpas 422; format: cell-based; conditions: Homo sapiens, KARPAS-422, read-out: Karpas 422 GI50, BCL6-high line
Experimental: (§1) After a short centrifugation the plates
(§2) The % inhibition at each test
(§3) 2.3 Cell proliferation assay
(§4) Compounds were initially dispensed into 96- […]
(§5) medium and transferred onto the cells.
(§6) The volume of medium containing 2500 cells in the control well was calculated and this volume of cells was transferred from every well of the assay plates to the corresponding well of the fresh plates containing compound. After 14 days, CellTiter Glo reagent (Promega) was added to the medium in each well of the assay plate at a ratio of 1:2, mixed on a plate shaker, then incubated at room temperature for 10 minutes. Luminescence was measured using an Envision plate reader (Perkin Elmer) and the relative luminescence at each compound concentration, compared to DMSO alone, was calculated. GI50 were determined using a 4-parameter curve fit in Dotmatics (Bishops Stortford, UK).

OCI-Ly3 = assay: Cell proliferation assay (14 days, CellTiter Glo), OCI-Ly3; format: cell-based; conditions: Homo sapiens, BCL6-low line
Experimental: as §1, §2, §3, §4, §5, §6

OCI-Ly1 = assay: Cell proliferation assay (14 days, CellTiter Glo), OCI-Ly1; format: cell-based; conditions: Homo sapiens, BCL6-high line
Experimental: as §1, §2, §3, §4, §5, §6

human BCL6 BTB domain = human BCL6 BTB domain (Homo sapiens, UniProt P41182); assay: biochemical; conditions: for BCL6 TR-FRET mean pIC50: mean of replicates
Description: 6. Supplementary tables … S-17
Table S1: summary statistics and individual replicate values … S-17 […]
1. Supplementary experimental: protein production, purification and crystallography 1.1 BCL6 constructs used for assays and crystallography
A first construct of BCL6 BTB domain, which we will refer to as Trx-6His-HRV3C-BCL6, was obtained […]
3C protease cleavage site. For the TR-FRET assay, the Trx-6His-HRV3C-BCL6 protein construct was […]
used without cleaving the tag, as a 6His was needed to bind to the anti-6His-Terbium antibody. […]
For both plasmid constructs described above, transformed BL21-AI E. coli cells were grown in LB […]
carried out at 18 °C for 18 hours. Cells were harvested by centrifugation (5500 g for 30 minutes at 4 […]
oC) and stored at -80 °C.
2. Supplementary experimental: biological assay conditions
IC50 values were determined using […]
a sigmoidal four-parameter logistic fit equation.
Individual replicates shown in supplementary

[1] = cited from earlier work
[2] = HPLC kinetic solubility assay; format: physicochemical; conditions: kinetic solubility by HPLC, 10 mM phosphate-buffered saline pH 7.4, 1% DMSO
Experimental: 3.2 HPLC solubility assay
DMSO. Following shaking of the suspension on a Bohdan Shaker at 500 rpm for 2 hours at room […]
200 µL of the supernatant was transferred to a 2 mL Agilent vial containing 50 µL of DMSO (Sigma […]
detection using an external standard which was prepared by pipetting 10 µL of the same batch of […]
The detail of the HPLC method is as following: chromatographic separation at 30°C is carried out over a 5 minute gradient elution method from 90:10 to 10:90 water:methanol (both modified with 0.1% formic acid) at a flow rate of 1.5 mL/min. Calibration curve is prepared by injecting 0.5, 2.5, and 5 µL of compound external standard.
62.5 µL of compound solubility sample. […]

PAMPA permeability = conditions: pH 7.4
[3] = read-out: BCL6 TR-FRET IC50, geometric mean of replicates
[4] = read-out: BCL6 TR-FRET IC50 individual replicates, single replicates, 10 nM BCL6 for early examples, else 1 nM

SMILES	GI50 (Karpas 422)	GI50 (OCI-Ly3)	GI50 (OCI-Ly1)	IC50 (human BCL6 BTB domain; BCL6 TR-FRET IC50 individual replicates, single replicates, 10 nM BCL6 for early examples, else 1 nM)	BCL6 TR-FRET mean pIC50 (human BCL6 BTB domain)	pIC50 (human BCL6 BTB domain; read-out: BCL6 TR-FRET IC50, Figure 1)	pIC50 (human BCL6 BTB domain; [3])	pIC50 (human BCL6 BTB domain; [4])	passive permeability [1]	Aq. Sol [2]	PAMPA Pe (7.4) (PAMPA permeability)
Cn1c(=O)c2c(c3cc(Nc4ccnc(Cl)c4C#N)ccc31)N[C@@H](C1CC1)C(F)(F)CO2 [Compound 1, (S)-2-Chloro-4-((2-cyclopropyl-3,3-difluoro-7-methyl-6-oxo-1,2,3,4,6,7-hexahydro-[1,4]oxazepino[2,3-c]quinolin-10-yl)amino)nicotinonitrile]	190 nM	3400 nM	170 nM	2.9 nM (3×) and 2.4 nM and 16.2 nM	8.40 and 8.41	8.40 and 8.41	8.41	8.41			
Cn1c(=O)cc(NC(C)(C)c2ncc(C3CC3)cn2)c2cc(Nc3ccnc(Cl)c3C#N)ccc21 [Compound 3]	3320 nM				7.58		7.59	7.59 and 7.48 and 7.39 and 7.65 and 7.81	high	31 µM	35 × 10^–6 cm s^–1
